No end group written: not given here.
Assays:
[1] = target: T1, hRpn13_ΔMTT (Homo sapiens, UniProt Q16186); assay: 1H-15N HSQC NMR titration / chemical shift perturbation (CSP), 0.1 mM 15N-labeled hRpn13_ΔMTT with unlabeled peptide; format: binding
T1 construct: recombinant plasmid of hRpn13 Pru (1–150) cloned into the pRSET vector; GST (N, cleaved yes); residual Gly-Ser (^cG-^dS) left after cleavage; made in house; host or cells: Escherichia coli BL21 (DE3); pGEX-4T-1 plasmid synthesized by GenScript (Addgene 237412)
T1 sequence (Q16186 4-150, stated change not applied): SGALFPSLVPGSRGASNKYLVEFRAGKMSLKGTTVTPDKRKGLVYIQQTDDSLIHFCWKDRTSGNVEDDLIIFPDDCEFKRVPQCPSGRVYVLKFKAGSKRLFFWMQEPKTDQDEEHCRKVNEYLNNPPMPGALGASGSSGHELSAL
Method: The similar spectral effects by adding ENT or ENT_M1S is readily apparent by quantifying and plotting the shifting across the Pru amino acid sequence (Supplementary Fig. 10b, c).
All ^1H-^15N HSQC experiments were acquired on samples dissolved in NMR buffer (20 mM sodium phosphate, pH 6.5, 50 mM NaCl, 1 mM TCEP, 10% D2O) unless specified, in which case 2 mM DTT replaced TCEP. The samples were purified in DTT-containing buffer and then exchanged into NMR buffer by using Zeba Protein Desalting columns (Thermo Fisher Scientific). The pH was measured and adjusted to 6.5. All NMR experiments were performed at 25 °C on a Bruker Advance 600 MHz spectrometer equipped with a cryogenically cooled probe. The data were processed by NMRpipe[46] (version 11.5) and spectra visualized and analyzed with NMR-FAM-SPARKY[47] (version 3.190) by using previous chemical shift assignments[12],[23] and NMRbox[48]. The amide nitrogen and hydrogen chemical shift perturbations (CSP) were mapped for each amino acid according to Eq. 1.1 CSP=0.2ΔδN2+ΔδH2
ΔδH, change in amide proton value (in parts per million); ΔδN, change in amide nitrogen value (in parts per million).
Supplementary Figure 9: 2D NMR experiments indicate ENT binding to hRpn13 Pru. a) ^1H-^15N HSQC spectrum of 0.1 mM ^15N-labeled hRpn13 (1-150, black) or hRpn13_ΔMTT (green). Select residues are labeled with amino acids in the Pru helix, proteasome binding region, and termini in blue, purple, and orange, respectively. Arrows indicate direction of shifting. b, c) ^1H-^15N HSQC spectra of 0.1 mM of ^15N-labeled hRpn13_ΔMTT alone (black) or with ENT present at equimolar (red), 2-fold (orange), 5-fold (yellow), 10-fold (green), 15-fold (blue), or 20-fold (purple) molar excess. […] All spectra were acquired at 600 MHz and 25°C in 20 mM sodium phosphate, pH 6.5, 100 mM NaCl, 1 mM TCEP, 10% D2O. ppm, part per million.

[2] = target: T1, hRpn13_ΔMTT; assay: Competition assay by fluorescence polarization (unlabeled peptide vs TAMRA-hRpn2 (940–953)); format: binding

GPGSMTT [ENT]
HSQC signal shifting of hRpn13_ΔMTT ([1]; 100 μM 15N-hRpn13_ΔMTT, peptide up to 20-fold molar excess, pH 6.5, 25 °C, 600 MHz): small concentration-dependent shifting of the same (T114, D117-E119, C121) and additional (W61, M109, H120, H145) hRpn13 amide signals | strength of binding to hRpn13 Pru (by HSQC) ([1]; 100 μM 15N-hRpn13_ΔMTT, varying molar ratios): weak interaction between ENT and hRpn13 Pru | CSP A6 ([1]; 20-fold molar excess peptide): 0.001342 | CSP A28 ([1]; 20-fold molar excess peptide): 0.00743 | CSP A100 ([1]; 20-fold molar excess peptide): 0.002049 | CSP A136 ([1]; 20-fold molar excess peptide): 0.002049 | CSP A139 ([1]; 20-fold molar excess peptide): 0.0004472 | CSP A149 ([1]; 20-fold molar excess peptide): 0.003493 | CSP C60 ([1]; 20-fold molar excess peptide): 0.003715 | CSP C80 ([1]; 20-fold molar excess peptide): 0.002049 | CSP C88 ([1]; 20-fold molar excess peptide): 0.002449 | CSP C121 ([1]; 20-fold molar excess peptide): 0.02471 | CSP D41 ([1]; 20-fold molar excess peptide): 0 | CSP D53 ([1]; 20-fold molar excess peptide): 0.002049 | CSP D54 ([1]; 20-fold molar excess peptide): 0.001789 | CSP D63 ([1]; 20-fold molar excess peptide): 0.004494 | CSP D71 ([1]; 20-fold molar excess peptide): 0.007 | CSP D72 ([1]; 20-fold molar excess peptide): 0.007759 | CSP D78 ([1]; 20-fold molar excess peptide): 0.005899 | CSP D79 ([1]; 20-fold molar excess peptide): 0.002864 | CSP D115 ([1]; 20-fold molar excess peptide): 0.009859 | CSP D117 ([1]; 20-fold molar excess peptide): 0.033 | CSP E25 ([1]; 20-fold molar excess peptide): 0.009859 | CSP E70 ([1]; 20-fold molar excess peptide): 0.005459 | CSP E81 ([1]; 20-fold molar excess peptide): 0.001342 | CSP E111 ([1]; 20-fold molar excess peptide): 0.01601 | CSP E118 ([1]; 20-fold molar excess peptide): 0.06429 | CSP E119 ([1]; 20-fold molar excess peptide): 0.03311 | CSP E146 ([1]; 20-fold molar excess peptide): 0.01203 | CSP F8 ([1]; 20-fold molar excess peptide): 0.002049 | CSP F26 ([1]; 20-fold molar excess peptide): 0.0264 | CSP F59 ([1]; 20-fold molar excess peptide): 0.002864 | CSP F76 ([1]; 20-fold molar excess peptide): 0.007603 | CSP F82 ([1]; 20-fold molar excess peptide): 0.004219 | CSP F98 ([1]; 20-fold molar excess peptide): 0.009391 | CSP F106 ([1]; 20-fold molar excess peptide): 0.002864 | CSP F107 ([1]; 20-fold molar excess peptide): 0.001789 | CSP G5 ([1]; 20-fold molar excess peptide): 0 | CSP G17 ([1]; 20-fold molar excess peptide): 0.002683 | CSP G29 ([1]; 20-fold molar excess peptide): 0.003286 | CSP G45 ([1]; 20-fold molar excess peptide): 0.006148 | CSP G67 ([1]; 20-fold molar excess peptide): 0.001342 | CSP G91 ([1]; 20-fold molar excess peptide): 0.002049 | CSP G101 ([1]; 20-fold molar excess peptide): 0.004669 | CSP G135 ([1]; 20-fold molar excess peptide): 0.002449 | CSP G138 ([1]; 20-fold molar excess peptide): 0.001095 | CSP G141 ([1]; 20-fold molar excess peptide): 0.002049 | CSP G144 ([1]; 20-fold molar excess peptide): 0.001342 | CSP H58 ([1]; 20-fold molar excess peptide): 0.007057 | CSP H120 ([1]; 20-fold molar excess peptide): 0.07737 | CSP H145 ([1]; 20-fold molar excess peptide): 0.06834 | CSP I49 ([1]; 20-fold molar excess peptide): 0.002408 | CSP I57 ([1]; 20-fold molar excess peptide): 0.004025 | CSP I75 ([1]; 20-fold molar excess peptide): 0.001673 | CSP K21 ([1]; 20-fold molar excess peptide): 0.0004472 | CSP K30 ([1]; 20-fold molar excess peptide): 0.01021 | CSP K34 ([1]; 20-fold molar excess peptide): 0.002408 | CSP K42 ([1]; 20-fold molar excess peptide): 0.00502 | CSP K62 ([1]; 20-fold molar excess peptide): 0.001342 | CSP K83 ([1]; 20-fold molar excess peptide): 0.005367 | CSP K97 ([1]; 20-fold molar excess peptide): 0.002449 | CSP K99 ([1]; 20-fold molar excess peptide): 0.001095 | CSP K103 ([1]; 20-fold molar excess peptide): 0.003131 | CSP K113 ([1]; 20-fold molar excess peptide): 0.008729 | CSP K123 ([1]; 20-fold molar excess peptide): 0.01565 | CSP L7 ([1]; 20-fold molar excess peptide): 0.002408 | CSP L11 ([1]; 20-fold molar excess peptide): 0.001342 | CSP L23 ([1]; 20-fold molar excess peptide): 0.004382 | CSP L33 ([1]; 20-fold molar excess peptide): 0.002 | CSP L46 ([1]; 20-fold molar excess peptide): 0.004899 | CSP L56 ([1]; 20-fold molar excess peptide): 0.002236 | CSP L73 ([1]; 20-fold molar excess peptide): 0.003493 | CSP L96 ([1]; 20-fold molar excess peptide): 0.001095 | CSP L105 ([1]; 20-fold molar excess peptide): 0.006017 | CSP L128 ([1]; 20-fold molar excess peptide): 0.003 | CSP L137 ([1]; 20-fold molar excess peptide): 0.002449 | CSP L147 ([1]; 20-fold molar excess peptide): 0.01114 | CSP L150 ([1]; 20-fold molar excess peptide): 0.003493 | CSP M31 ([1]; 20-fold molar excess peptide): 0.003131 | CSP M109 ([1]; 20-fold molar excess peptide): 0.01978 | CSP M133 ([1]; 20-fold molar excess peptide): 0.001095 | CSP N20 ([1]; 20-fold molar excess peptide): 0.002049 | CSP N68 ([1]; 20-fold molar excess peptide): 0.001095 | CSP N125 ([1]; 20-fold molar excess peptide): 0.002049 | CSP N129 ([1]; 20-fold molar excess peptide): 0.004025 | CSP N130 ([1]; 20-fold molar excess peptide): 0.001673 | CSP Q50 ([1]; 20-fold molar excess peptide): 0.003742 | CSP Q51 ([1]; 20-fold molar excess peptide): 0.004025 | CSP Q87 ([1]; 20-fold molar excess peptide): 0.003742 | CSP R16 ([1]; 20-fold molar excess peptide): 0.001095 | CSP R27 ([1]; 20-fold molar excess peptide): 0.001095 | CSP R43 ([1]; 20-fold molar excess peptide): 0.002191 | CSP R64 ([1]; 20-fold molar excess peptide): 0.004025 | CSP R92 backbone ([1]; 20-fold molar excess peptide): 0.003131 | CSP R92 sidechain ([1]; 20-fold molar excess peptide): 0.016 | CSP R104 ([1]; 20-fold molar excess peptide): 0.008112 | CSP R122 ([1]; 20-fold molar excess peptide): 0.01435 | CSP S4 ([1]; 20-fold molar excess peptide): 0.009602 | CSP S10 ([1]; 20-fold molar excess peptide): 0.001342 | CSP S15 ([1]; 20-fold molar excess peptide): 0.001342 | CSP S19 ([1]; 20-fold molar excess peptide): 0.001342 | CSP S32 ([1]; 20-fold molar excess peptide): 0.001342 | CSP S55 ([1]; 20-fold molar excess peptide): 0.002864 | CSP S66 ([1]; 20-fold molar excess peptide): 0.004472 | CSP S102 ([1]; 20-fold molar excess peptide): 0.002049 | CSP S140 ([1]; 20-fold molar excess peptide): 0.001342 | CSP S142 ([1]; 20-fold molar excess peptide): 0.002049 | CSP S143 ([1]; 20-fold molar excess peptide): 0.002236 | CSP S148 ([1]; 20-fold molar excess peptide): 0.003286 | CSP T36 ([1]; 20-fold molar excess peptide): 0.00882 | CSP T37 ([1]; 20-fold molar excess peptide): 0.003578 | CSP T39 ([1]; 20-fold molar excess peptide): 0.001342 | CSP T52 ([1]; 20-fold molar excess peptide): 0 | CSP T65 ([1]; 20-fold molar excess peptide): 0.001342 | CSP T114 ([1]; 20-fold molar excess peptide): 0.02379 | CSP V12 ([1]; 20-fold molar excess peptide): 0.002049 | CSP V24 ([1]; 20-fold molar excess peptide): 0.003715 | CSP V47 ([1]; 20-fold molar excess peptide): 0.008497 | CSP V69 ([1]; 20-fold molar excess peptide): 0.004494 | CSP V93 ([1]; 20-fold molar excess peptide): 0.004494 | CSP V95 ([1]; 20-fold molar excess peptide): 0.002683 | CSP V124 ([1]; 20-fold molar excess peptide): 0.0139 | CSP W61 ([1]; 20-fold molar excess peptide): 0.0278 | CSP W108 ([1]; 20-fold molar excess peptide): 0.005899 | CSP Y22 ([1]; 20-fold molar excess peptide): 0.01048 | CSP Y48 ([1]; 20-fold molar excess peptide): 0.003715 | CSP Y94 ([1]; 20-fold molar excess peptide): 0.00502 | CSP Y127 ([1]; 20-fold molar excess peptide): 0.00531 | effect at Pru-B-binding surface (HSQC) ([1]; e.g. F76 and D78 amide signals): No effects were observed at the Pru-B-binding surface | concentration required to completely decrease the FP to background levels ([2]; 80 nM hRpn13_ΔMTT, 10 nM TAMRA-hRpn2 (940–953), N = 6): > 3 mM | concentrations at which peptides can displace hRpn2 from hRpn13 ([2]; FP competition): > 0.5 mM | IC50 ([2]; peer review file, FP competition with TAMRA-hRpn2 (940-953), read-out: IC50 (FP decreased to background levels)): > 3 mM

Source: publication PMC12218921, “An adaptive peptide-binding site in ubiquitin receptor hRpn13 revealed by structural studies” (Nature Communications, 2025)
